The values below are quoted from earlier work in US20250258260A1, “MEGLUMINE BASED FORMULATIONS FOR DYNAMIC NUCLEAR POLARIZATION” (THE BOARD OF REGENTS OF THE UNIVERSITY OF TEXAS SYSTEM, priority 2024, published 2025).

Values after ≈ are worked out from the molar mass of the structure shown. Where two headings read alike, the source gives them in different places.

For series [1] the following is noted: at 11.7 T using water as solvent.
For a further series, the system named is muscle function. Particulars: 18 mM in drinking water for at least 30 days.

As to `O=[13C](O)/C=C/[13C](=O)O` [[1,4-^13C2]fumarate], the T1 in series [1] is 29 s.

Regarding `O=C(O)/C=C/C(=O)O` [fumaric acid], the solubility in water (at 25° C.) was 6000 µg/mL (≈ 51.7 mM).

In the case of `CNC[C@H](O)[C@@H](O)[C@H](O)[C@H](O)CO` [meglumine], the solubility in water result is reported as “up to 1 g/mL”. Moreover, the effect of supplementation result in the series with muscle function is “favorable effect on muscle function”.
